What was measured:
HCC44-PSCA = HCC44-PSCA SC tumors in NSG mice with IV CAR-T transfer (human T cell ACT mouse model); type: in vivo
Experimental: Inoculated in NSG mice and received IV CART transfer with AMG-510 Orla gavage (30 mg/Kg/Mouse for 6 days then sacrificed and tumors were collected and stained with T cells markers, or for 20 days with IP anti-human PD1 Ab (twice a week) for Tumor growth curve.

[1] = test system: CT26-G12C colon cancer cells; type: in vivo, mouse
Experimental: CT26-G12C colon cancer cells were SC. Implanted in BALB/C mice, and left to develop SC. Tumors for 20 days, then treated with oral gavage of 3 mg/kg/mouse TRA or 30 mg/kg/mouse AMG-510 for 6 days alone or for 20 days with anti-PD1 Ab (IP 200 μg/mouse twice a week). Tumor size was measured till mice being sacrificed. tumors were collected and stained for T cell, and Myeloid cell markers mouse antibodies (anti-CD45, anti-CD8, anti-CD4, anti-CD3, anti-CD69, anti-PD1, anti-CD25, anti-CD62L, anti-CD44, anti-F4/80, anti-CD11C, anti-CD11b, anti-Ly6G, ant-Ly6C and Live/Dead near IR viability dye). CM (central memory): CD62L+CD44+, EM (Effector memory) CD62L-CD44+. Mice survival was assessed using Kaplan-Meier survival test.

CT26-G12C tumors = experiment: Single cell RNA sequencing of CT26-G12C tumors; type: in vivo, mouse
Source text: UMAP projections were generated from scRNA-seq data and used for visualization. Cell type clusters detected in DAPI-sorted cells from CT26-G12C SC. Tumors (FIG. 4A), or from CT26-G12C in vitro cell line (FIG. 4D) treated with the indicated conditions are shown, with cell % percentage histogram and gene-level expression heat map calculated for each cluster.

C=CC(=O)N1CCN(c2nc(=O)n(-c3c(C)ccnc3C(C)C)c3nc(-c4c(O)cccc4F)c(F)cc23)[C@@H](C)C1 (atropisomer, axis not shown) [Sotorasib, 6-fluoro-7-(2-fluoro-6-hydroxyphenyl)-(1/W)-1-[4-methyl-2-(propan-2-yl)pyridin-3-yl]-4-[(2S)-2-methyl-4-(prop-2-enoyl)piperazin-1-yl]pyrido[2,3-cf]pyrimidin-2 (1/-/)-one]
anti-tumor effect of CAR-T adoptive cell transfer and anti-PD1 (HCC44-PSCA; combined with CAR-T adoptive cell transfer and anti-PD1 treatment): enhanced their anti-tumor effect | expansion of tumor infiltrating lymphocytes (TILs) (HCC44-PSCA; human T cell adoptive therapy (ACT) mouse model, 30 mg/Kg/Mouse oral gavage, 6 days): significantly promoted the expansion of tumor infiltrating lymphocytes | expansion of tumor infiltrating lymphocytes (TILs) ([1]; CT26-G12C heterotrophic mouse model, 30 mg/kg/mouse oral gavage, 6 days): significantly promoted the expansion of tumor infiltrating lymphocytes | mouse survival (Kaplan-Meier) ([1]; combined with anti-PD-1, CT26-G12C model): prolonging mouse survival | tumor microenvironment / T cell effector phenotype ([1]; mouse tumor models): strikingly augmented T cell effector phenotype | control of CT26-G12C tumor growth ([1]; mouse, in vivo, ip): synergized with anti-PD-1 in controlling CT26-G12C tumor growth | immuno-active and growth-active tumor clusters (scRNA-seq, cell % per cluster) (CT26-G12C tumors; CT26-G12C SC tumors and in vitro cell line): enriches the immuno-active and diminishes growth-active tumor clusters | tumor clusters by top upregulated pathways (scRNA-seq) (CT26-G12C tumors; Sotorasib-treated CT26-G12C tumors): enrichment of tumor clusters with TNFα and IFNγ as top upregulated pathways

Reference: patent US20250295665A1, “SELECTIVE K-RAS INHIBITORS FOR THE ENHANCEMENT OF ADOPTIVE IMMUNOTHERAPIES” (H. LEE MOFFITT CANCER CENTER AND RESEARCH INSTITUTE INC., priority 2022, published 2025)
